We go through three compounds from patent publication US11608331B2 (priority 2021, dated 2023).

One series can be described thus: in vitro. Particulars: human.
Series [1] deals with SARS-CoV-2 strain NRC-03-nhCoV. The series can be described thus: microbe, parasite or virus in culture. In kind it is cell-based.
In a further series the target is SARS-CoV-2 Mpro (Severe acute respiratory syndrome coronavirus 2, UniProt P0DTD1). In words: Main protease (Mpro) assay, 3CL Protease assay kit. Type of series: biochemical.
Another series has as its target T1, human furin protease (Homo sapiens, UniProt P09958).
T1 construct: purchased BPS Bioscience 78040
In words: Furin protease assay. Type of series: biochemical.

Another series deals with SARS-CoV-2 PLpro (Severe acute respiratory syndrome coronavirus 2, UniProt P0DTD1). The series can be described thus: Papain-like protease (PLpro) assay. Particulars: for IC50: dose response curve, read-out: IC50 against SARS-CoV-2 PLpro. In kind it is biochemical.
Setting [2] is: read-out: IC50 against human furin protease.

Molecules are shown by their SMILES. Read-outs that look alike come from different tables or passages of the source.

T1 sequence (P09958 108-794): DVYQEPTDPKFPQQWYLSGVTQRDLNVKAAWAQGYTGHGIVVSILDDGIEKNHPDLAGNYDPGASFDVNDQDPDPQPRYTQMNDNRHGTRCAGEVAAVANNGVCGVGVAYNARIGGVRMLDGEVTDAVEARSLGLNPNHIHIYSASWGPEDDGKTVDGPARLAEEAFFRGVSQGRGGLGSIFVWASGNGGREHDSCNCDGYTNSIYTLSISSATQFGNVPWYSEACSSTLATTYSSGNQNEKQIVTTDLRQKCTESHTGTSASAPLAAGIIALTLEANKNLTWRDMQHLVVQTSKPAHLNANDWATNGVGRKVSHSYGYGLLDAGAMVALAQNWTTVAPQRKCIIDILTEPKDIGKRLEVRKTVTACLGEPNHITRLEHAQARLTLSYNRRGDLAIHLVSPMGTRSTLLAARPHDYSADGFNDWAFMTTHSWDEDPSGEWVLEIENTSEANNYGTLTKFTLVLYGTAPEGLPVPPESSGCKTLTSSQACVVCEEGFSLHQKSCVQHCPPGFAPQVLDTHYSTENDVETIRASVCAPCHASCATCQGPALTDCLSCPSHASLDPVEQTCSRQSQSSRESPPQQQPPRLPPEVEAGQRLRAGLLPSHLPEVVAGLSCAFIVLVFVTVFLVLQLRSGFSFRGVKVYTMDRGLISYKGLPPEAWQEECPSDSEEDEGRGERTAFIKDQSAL

As for `COc1cc(C(NC2=NC(=O)C(CC(=O)Nc3ccc(C(=O)O)cc3)S2)c2c(O)[nH]c(=O)[nH]c2=O)ccc1O` (stereo not shown) [Compound 7], the IC50 was 1670 nM in the series “in vitro”; 770 nM in series [1] (Severe acute respiratory syndrome coronavirus 2, Vero C1008, 72 h, read-out: IC50 inhibition activity against SARS-CoV-2); 290 nM at human furin protease (setting [2]); 85 nM on SARS-CoV-2 PLpro. In addition, the inhibition at 100 µg/mL at SARS-CoV-2 Mpro (read-out: inhibition activity against Mpro enzyme (inhibition percentage)) was 31 ± 2%. For the same compound, the “inhibition activity against SARS-CoV-2 PLpro” value against SARS-CoV-2 PLpro (screening, mean±SEM of 3 replicas) came to 56.4%.

For `N=C(N/N=C/c1ccncc1)c1nonc1NCNc1nonc1C(=N)N/N=C/c1ccncc1` [Compound 13M], the IC50 in series [1] (Severe acute respiratory syndrome coronavirus 2, Vero C1008, compound 13M, FIG. 10A, read-out: antiviral activity in vitro IC50) is approximately 8 µg/mL; on SARS-CoV-2 Mpro (compound 13M, FIG. 10B-10C, read-out: IC50 against Mpro enzyme (converted)) it was 13400 nM; against human furin protease it was 86200 nM.

For `N=C(N/N=C/c1ccccc1O)c1nonc1NCNc1nonc1C(=N)N/N=C/c1ccccc1O` [Compound 13], the IC50 at 24 h in “in vitro” was 410 nM. For the same compound, the IC50 in series [1] (Severe acute respiratory syndrome coronavirus 2, Vero C1008, Vero-E6 cells, strain NRC-03-nhCoV, 72 h, read-out: IC50 inhibition activity against SARS-CoV-2) was 110 nM; at human furin protease (setting [2]), 290 nM; at SARS-CoV-2 PLpro, 63 nM.
